# Experimental data: US6949577B2, “Pharmaceuticals” (Pfizer, Inc., priority 2000, dated 2005)
# Where two headings read alike, the source gives them in different places.
# Experiments:
# [1] = molecular target: T1, TAFIa (activated human TAFI) (Homo sapiens, UniProt Q96IY4); assay: Assay for TAFIa inhibition (Ki determination); format: biochemical
# T1 sequence (Q96IY4 115-423): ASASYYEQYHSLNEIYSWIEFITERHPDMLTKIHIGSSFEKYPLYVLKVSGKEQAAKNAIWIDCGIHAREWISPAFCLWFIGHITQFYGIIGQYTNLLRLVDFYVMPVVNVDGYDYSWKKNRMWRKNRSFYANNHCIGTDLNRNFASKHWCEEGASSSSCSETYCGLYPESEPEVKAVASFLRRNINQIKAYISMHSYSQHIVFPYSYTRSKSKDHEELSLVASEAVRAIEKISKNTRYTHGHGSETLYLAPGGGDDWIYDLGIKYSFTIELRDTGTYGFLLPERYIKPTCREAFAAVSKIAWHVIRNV
# Procedure: To determine the degree of TAFIa inhibition, compounds were incubated with activated TAFI, and the amount of inhibition expressed in terms of Ki.
# Human TAFI (recombinant or purified) was activated by incubating 20 μl of stock solution (360 μg/ml) with 10 μl of human thrombin (10 NIH units/ml), 10 μl of rabbit thrombomodulin (30 μg/ml), 6 μl calcium chloride (50 mM) in 50 μL of 20 mM HEPES (N-[2-hydroxyethyl]piperazine-N-[2-ethanesulfonic acid]) buffer containing 150 mM sodium chloride and 0.01% TWEEN 80 (polyoxyethylene-sorbitan monooleate) pH 7.6 for 20 minutes at 22° C. At the end of the incubation period, thrombin was neutralized by the addition of 10 μL of PPACK (D-Phe-Pro-Arg chloromethyl ketone)(100 nM). TAFIa solution was stored on ice for 5 minutes and finally diluted with 175 μl of HEPES buffer.
# A number of different dilutions of the test compound in water were made up. […] To each dilution was then added 20 μl furylacryloyl-alanyl-lysine (FAAL) at a standard concentration. Substrate turn over was measured by reading the absorbance of the reaction mixture at 330 nm every 15 seconds for 30 minutes. Reaction was performed at 24° C. and samples were mixed for 3 seconds prior to each absorbance reading.
# A graph of % inhibition against test compound concentration was then plotted; from which was calculated the IC50 value. The Ki value may then be calculated using the Cheng-Prusoff equation.
# For the first control, the assay was performed as above, but with 20 μl of water rather than a dilution of the test compound.
# [2] = tested on: thrombi in the left circumflex (LCX) coronary artery; assay: Lysis of coronary artery thrombi by TAFIa inhibitor in conjunction with t-PA; format: in vivo, dogs; conditions: for injured vessels patent at the end of the experiment: 8 dogs/group, all groups received t-PA
# From the text: The study was designed with 4 groups (8 dogs/group): • (i) aspirin pre-treatment/vehicle infusion; • (ii) no pre-treatment/vehicle infusion; • (iii) no pre-treatment/TAFIa inhibitor; and • (iv) aspirin pre-treatment/TAFIa inhibitor.
# Thirty minutes after initiating vehicle or compound infusion a continuous electrical current was delivered to the lumen of the left circumflex (LCX) coronary artery to cause endothelial damage and stimulate the production of a thrombus. Thrombi were allowed to mature for 1 hour prior to attempting to lyse the thrombus and cause vessel reperfusion with t-PA. A total of 4 bolus injections of t-PA (each 0.45 mg/kg i.v.) were given sequentially at 15 minute intervals. Blood flow through the coronary artery was then monitored for a further 2 hours so as to assess vessel patency. Time to vessel occlusion, and reperfusion were measured and the quantity and quality of blood flow analysed post-vessel re-perfusion. In addition, the effect of treatment on surgical bleeding, activated clotting time, cutaneous bleeding and platelet aggregation was also assessed.
# [3] = TAFIa, FAAL substrate, Ki calculated from IC50 using Cheng-Prusoff equation, read-out: Ki
Structure (SMILES),"Ki [1, 3]",injured vessels patent at the end of the experiment [2],also measured
"CCCn1cnc(CC(CCCCN)C(=O)O)c1 (racemic) [Example 3, (±)-6-Amino-2-[(1-n-propyl-1H-imidazol-4-yl)methyl]hexanoic acid]",310 nM,–,–
"CCCn1cnc(C[C@H](CCCN)C(=O)O)c1 [Example 7, (+)-(2S)-5-Amino-2-[(1-n-propyl-1H-imidazol-4-yl)methyl]pentanoic acid]",–,8/8,"blood flow post-reperfusion (FIG. 1) ([2]; dogs, t-PA 4 x 0.45 mg/kg i.v. boluses, comparison of treatment groups): far superior to tPA alone; proportion of animals in which flow was >75% of baseline at the end of the protocol ([2]; dogs, with t-PA, versus respective controls): significantly increased; period over which improvement in coronary blood flow was maintained ([2]; dogs, with t-PA, whole of the reperfusion period): 165 min; Ki [1]: 13 nM"
"NCCN[C@@H](Cc1c[nH]cn1)C(=O)O [Example 11, (2S)-2-[(2-Aminoethyl)amino]-3-(1H-imidazol-4-yl)propanoic acid]",344 nM,–,–
"NCCN[C@@H](Cc1cn(Cc2cncs2)cn1)C(=O)O [Example 45, (2S)-2-[(2-Aminoethyl)amino]-3-[1-(1,3-thiazol-5-ylmethyl)-1H-imidazol-4-yl]propanoic acid]",197 nM,–,–
"CC(=O)Oc1ccccc1C(=O)O [aspirin, reference compound]",–,1/8,–
